Assay results as given in patent publication US10159640B2, “Prebiotic oral care compositions containing amino acids” (COLGATE-PALMOLIVE COMPANY, priority 2013, dated 2018).

Key:
Format in all cases: cell-based
[1] = tested on: Actinomyces viscosus; assay: Metabolic activity, Biolog phenotype microarray; conditions: control without dipeptide = 1
Experimental: (§1) The extent of metabolic activity of the tested bacteria in the presence of the above-mentioned dipeptides after 24 hours and 48 hours was investigated through a high throughput phenotype microarray system (PM) for microbial cells (Biolog Inc.). Each PM can contain up to 95 different biochemical compounds (e.g. di-peptides) that may act as substrates for bacteria as well as one negative control, not containing the substrates. Microarray plates were used in which the different wells of each plate were pre-loaded (by the manufacturer, Biolog Inc.) with different di-peptides to be tested. Each bacterial species was tested using a separate microarray plate. Thus, a single bacterial species was tested with a variety of dipeptides on each particular plate. The microarrays are based on redox technology, using cell respiration as a universal reporter. Active cell respiration results in the reduction of a tetrazolium dye and in the formation of a strong color—for example, when using the tetrazolium dye “Biolog Redox Dye Mix D”, the color changes from transparent/colourless to purple when the dye is reduced. The observation of this color change indicates which of the substrates improve the metabolic activity and health of the cells. Each bacterial species was collected from blood agar plates (incubated for 48 hours anaerobically at 37° C.) and transferred to an IF-0 Base inoculation fluid (Biolog Inc.), which is a nutritionally poor medium. The resulting cell suspension was adjusted to a transmittance of 42% (relative to the transmittance of the base inoculation fluid with no bacterial species present) at 492 nm using a BioRad SmartSpec 3000 Photometer (the adjustment being effected by adding either further inoculation fluid or further bacteria until the transmittance of 42% was achieved). A 1:5 dilution of this suspension was prepared by mixing 3 mL of the 42% transmittance cell suspension with 15 mL of an inoculation fluid (which inoculation fluid was formed by mixing 11.6 mL sterile water, 62.5 mL IF-0 base inoculation fluid and 0.9 mL of the tetrazolium dye “Biolog Redox Dye mix D”), resulting in a final cell density which was equal to 85% transmittance using a BioRad SmartSpec 3000 Photometer. 680 μL of a 2M sodium succinate/200 μM ferric citrate solution in distilled water was added to 68 mL of the 85% transmittance cell suspension and 100 μL of this mixture was added to each well (the various di-peptides being already present in powder form in the relevant wells of the plate as obtained from the supplier i.e. Biolog Inc.). All plates were incubated in an anaerobic atmosphere at 37° C. Color changes were measured spectrophotometrically at 492 nm (Thermo Scientific Multiskan Ascent) at 24 hrs and 48 hrs using the same plate at both time points. […] After 24 hrs and 48 hrs under continuous shaking in a Multiscan microplate reader, the optical density (OD) of the synthetic medium at 24 hours and 48 hours was measured (using the microplate reader) at a wavelength of 492 nm for each combination of bacterium/dipeptide, and for each of their respective controls (i.e. which contained the particular bacterium but no dipeptide). […] The experiment was carried out three times for each combination of bacterium with dipeptide, with each repeat being carried out on a different day (thus providing three biological replicas). The controls were also carried out three times, as above. The values shown are the average (mean) of the three single values obtained (as detailed above) for each combination of bacterium with dipeptide, at 24 hrs and at 48 hrs.

[2] = tested on: Streptococcus mutans; assay: Metabolic activity, Biolog phenotype microarray; conditions: control without dipeptide = 1
Experimental: as §1

[3] = tested on: Aggregatibacter actinomycetemcomitans; assay: Metabolic activity, Biolog phenotype microarray; conditions: control without dipeptide = 1
Experimental: as §1

[4] = tested on: Porphyromonas gingivalis; assay: Metabolic activity, Biolog phenotype microarray; conditions: control without dipeptide = 1
Experimental: as §1

[5] = tested on: Veillonella parvula; assay: Metabolic activity, Biolog phenotype microarray; conditions: control without dipeptide = 1
Experimental: as §1

[6] = tested on: Streptococcus gordonii; assay: Metabolic activity, Biolog phenotype microarray; conditions: control without dipeptide = 1
Experimental: as §1

[7] = tested on: Tannerella forsythia; assay: Metabolic activity, Biolog phenotype microarray; conditions: control without dipeptide = 1
Experimental: as §1

[8] = tested on: Streptococcus sobrinus; assay: Metabolic activity, Biolog phenotype microarray; conditions: control without dipeptide = 1
Experimental: as §1

[9] = tested on: Streptococcus mitis; assay: Metabolic activity, Biolog phenotype microarray; conditions: control without dipeptide = 1
Experimental: as §1

[10] = tested on: Fusobacterium nucleatum; assay: Metabolic activity, Biolog phenotype microarray; conditions: control without dipeptide = 1
Experimental: as §1

[11] = tested on: Prevotella intermedia; assay: Metabolic activity, Biolog phenotype microarray; conditions: control without dipeptide = 1
Experimental: as §1

[12] = tested on: Streptococcus sanguinis; assay: Metabolic activity, Biolog phenotype microarray; conditions: control without dipeptide = 1
Experimental: as §1

[13] = tested on: Actinomyces naeslundii; assay: Metabolic activity, Biolog phenotype microarray; conditions: control without dipeptide = 1
Experimental: as §1

[14] = tested on: Streptococcus salivarius; assay: Metabolic activity, Biolog phenotype microarray; conditions: control without dipeptide = 1
Experimental: as §1

[15] = tested on: Capnocytophaga sputigena; assay: Metabolic activity, Biolog phenotype microarray; conditions: control without dipeptide = 1
Experimental: as §1

[16] = tested on: beneficial oral bacteria and pathogenic oral bacteria; assay: Metabolic activity, whole panel: prebiotic effect; conditions: threshold value of 2
Experimental: Substrates that were able to increase the metabolic activity of at least one of the above beneficial bacteria while not or only minimally increasing the growth of the pathogenic bacteria are considered to be prebiotic substrates. The extent of metabolic activity of the tested bacteria in the presence of the above-mentioned dipeptides after 24 hours and 48 hours was investigated through a high throughput phenotype microarray system (PM) for microbial cells (Biolog Inc.). Each PM can contain up to 95 different biochemical compounds (e.g. di-peptides) that may act as substrates for bacteria as well as one negative control, not containing the substrates. Microarray plates were used in which the different wells of each plate were pre-loaded (by the manufacturer, Biolog Inc.) with different di-peptides to be tested. Each bacterial species was tested using a separate microarray plate. Thus, a single bacterial species was tested with a variety of dipeptides on each particular plate. The microarrays are based on redox technology, using cell respiration as a universal reporter. Active cell respiration results in the reduction of a tetrazolium dye and in the formation of a strong color—for example, when using the tetrazolium dye “Biolog Redox Dye Mix D”, the color changes from transparent/colourless to purple when the dye is reduced. The observation of this color change indicates which of the substrates improve the metabolic activity and health of the cells. Each bacterial species was collected from blood agar plates (incubated for 48 hours anaerobically at 37° C.) and transferred to an IF-0 Base inoculation fluid (Biolog Inc.), which is a nutritionally poor medium. The resulting cell suspension was adjusted to a transmittance of 42% (relative to the transmittance of the base inoculation fluid with no bacterial species present) at 492 nm using a BioRad SmartSpec 3000 Photometer (the adjustment being effected by adding either further inoculation fluid or further bacteria until the transmittance of 42% was achieved). A 1:5 dilution of this suspension was prepared by mixing 3 mL of the 42% transmittance cell suspension with 15 mL of an inoculation fluid (which inoculation fluid was formed by mixing 11.6 mL sterile water, 62.5 mL IF-0 base inoculation fluid and 0.9 mL of the tetrazolium dye “Biolog Redox Dye mix D”), resulting in a final cell density which was equal to 85% transmittance using a BioRad SmartSpec 3000 Photometer. 680 μL of a 2M sodium succinate/200 μM ferric citrate solution in distilled water was added to 68 mL of the 85% transmittance cell suspension and 100 μL of this mixture was added to each well (the various di-peptides being already present in powder form in the relevant wells of the plate as obtained from the supplier i.e. Biolog Inc.). All plates were incubated in an anaerobic atmosphere at 37° C. Color changes were measured spectrophotometrically at 492 nm (Thermo Scientific Multiskan Ascent) at 24 hrs and 48 hrs using the same plate at both time points. […] After 24 hrs and 48 hrs under continuous shaking in a Multiscan microplate reader, the optical density (OD) of the synthetic medium at 24 hours and 48 hours was measured (using the microplate reader) at a wavelength of 492 nm for each combination of bacterium/dipeptide, and for each of their respective controls (i.e. which contained the particular bacterium but no dipeptide). […] The experiment was carried out three times for each combination of bacterium with dipeptide, with each repeat being carried out on a different day (thus providing three biological replicas). The controls were also carried out three times, as above. The values shown are the average (mean) of the three single values obtained (as detailed above) for each combination of bacterium with dipeptide, at 24 hrs and at 48 hrs. […] This value was selected in order to exclude low-stimulating metabolites and avoid false positive results.

Compound	metabolic activity: OD 492 nm divided by OD of control ([1]; 24 hrs)	metabolic activity: OD 492 nm divided by OD of control ([1]; 48 hrs)	metabolic activity: OD 492 nm divided by OD of control ([2]; 24 hrs)	metabolic activity: OD 492 nm divided by OD of control ([2]; 48 hrs)	metabolic activity: OD 492 nm divided by OD of control ([3]; 24 hrs)	metabolic activity: OD 492 nm divided by OD of control ([3]; 48 hrs)	metabolic activity: OD 492 nm divided by OD of control ([4]; 24 hrs)	metabolic activity: OD 492 nm divided by OD of control ([4]; 48 hrs)	metabolic activity: OD 492 nm divided by OD of control ([5]; 24 hrs)	metabolic activity: OD 492 nm divided by OD of control ([5]; 48 hrs)	metabolic activity: OD 492 nm divided by OD of control ([6]; 24 hrs)	metabolic activity: OD 492 nm divided by OD of control ([6]; 48 hrs)	metabolic activity: OD 492 nm divided by OD of control ([7]; 24 hrs)	metabolic activity: OD 492 nm divided by OD of control ([7]; 48 hrs)	metabolic activity: OD 492 nm divided by OD of control ([8]; 24 hrs)	metabolic activity: OD 492 nm divided by OD of control ([8]; 48 hrs)	metabolic activity: OD 492 nm divided by OD of control ([9]; 24 hrs)	metabolic activity: OD 492 nm divided by OD of control ([9]; 48 hrs)	metabolic activity: OD 492 nm divided by OD of control ([10]; 24 hrs)	metabolic activity: OD 492 nm divided by OD of control ([10]; 48 hrs)	also measured
Ser-Asn	1.7174	2.0421	1.2715	1.7588	1.3093	1.7285	1.0079	1.2165	1.1101	1.1143	0.8814	1.3337	1.2030	1.4354	1.2753	1.7028	1.0807	1.5785	1.2165	1.4289	metabolic activity: OD 492 nm divided by OD of control ([11]; 24 hrs): 1.1002; metabolic activity: OD 492 nm divided by OD of control ([11]; 48 hrs): 1.1329; metabolic activity: OD 492 nm divided by OD of control ([12]; 24 hrs): 1.1935; metabolic activity: OD 492 nm divided by OD of control ([12]; 48 hrs): 1.5794; metabolic activity: OD 492 nm divided by OD of control ([13]; 24 hrs): 1.3199; metabolic activity: OD 492 nm divided by OD of control ([13]; 48 hrs): 1.6167; metabolic activity: OD 492 nm divided by OD of control ([14]; 24 hrs): 1.1917; metabolic activity: OD 492 nm divided by OD of control ([14]; 48 hrs): 1.5886; metabolic activity: OD 492 nm divided by OD of control ([15]; 24 hrs): 2.2418; metabolic activity: OD 492 nm divided by OD of control ([15]; 48 hrs): 1.5699; prebiotic effects (metabolic activity) ([16]; 24 hrs): exhibited prebiotic effects; prebiotic effects (metabolic activity) ([16]; 48 hrs): exhibited prebiotic effects
NC(Cc1c[nH]cn1)C(=O)NC(Cc1c[nH]c2ccccc12)C(=O)O (stereo not drawn) [His-Trp]	1.8735	2.2797	1.0292	1.5031	0.9439	0.9818	1.0126	1.3518	1.1364	1.4269	1.0431	1.1070	0.8973	0.9897	1.0811	1.2074	0.9734	1.0242	0.9185	0.9774	metabolic activity: OD 492 nm divided by OD of control ([11]; 24 hrs): 1.0278; metabolic activity: OD 492 nm divided by OD of control ([11]; 48 hrs): 1.2057; metabolic activity: OD 492 nm divided by OD of control ([12]; 24 hrs): 1.0228; metabolic activity: OD 492 nm divided by OD of control ([12]; 48 hrs): 1.0830; metabolic activity: OD 492 nm divided by OD of control ([13]; 24 hrs): 1.3153; metabolic activity: OD 492 nm divided by OD of control ([13]; 48 hrs): 1.5439; metabolic activity: OD 492 nm divided by OD of control ([14]; 24 hrs): 0.9767; metabolic activity: OD 492 nm divided by OD of control ([14]; 48 hrs): 1.0689; metabolic activity: OD 492 nm divided by OD of control ([15]; 24 hrs): 1.3266; metabolic activity: OD 492 nm divided by OD of control ([15]; 48 hrs): 1.3068; prebiotic effects (metabolic activity) ([16]; 48 hrs): exhibited prebiotic effects
